In data set [1] the test system is rats with full thickness skin burn. In words: Rat thermal skin burn (30% of skin area): Evans Blue leakage and macroscopic appearance of lung. The data set is classed as in vivo, Female Wistar rats. The procedure:
Female Wistar rats of body weight 250-300 grams were used in this study. The rats were divided into three groups: PMX53 treatment involved a subcutaneous injection of PMX53 in distilled water at a dose of 10 mg/kg 30 minutes before the burn. With the rats under deep anaesthesia, a closely-clipped area of skin on the back equivalent to 30% of total skin area was exposed to water at a temperature of 75° C. for 30 seconds. […] To prevent rapid death from the burn, rats were immediately treated with an intraperitoneal infusion of 8-10 ml normal saline. At the same time Evans Blue (EB) at a concentration of 20 mg/kg was injected via the femoral vein. The rats were then kept on a heating pad to maintain normal body temperature, and monitored for 4 hours. Anaesthetic was topped up as required. At the end of the experiment, 1-2 ml of blood was taken and the serum/plasma stored at −20° C., for subsequent assay of serum TNF-α levels. The leakage of EB/albumin from the blood vessels into the subcutaneous tissue was estimated by examining photographs of skin samples.

Data set [2] shares this test system. The experiment in a line: Rat thermal skin burn (30%): bronchoalveolar lavage cell number and lung myeloperoxidase. The data set is classed as in vivo, Female Wistar rats. The settings on record: 10 mg/kg SC pretreatment, 4 hours after burn injury, versus untreated burned animals. The procedure:
A separate series of experiments was performed in the same way to determine myeloperoxidase (MPO) levels in the lung. In this experiment the groups were as follows: Immediately after the 4 hr monitoring period following the burn the lungs were flushed with 10 ml of saline via the pulmonary artery. Bronchoalveolar lavage (BAL) fluid was collected by an irrigation of 1 ml of saline at 37° C. into the lung once through the trachea and the total number of cells present in the lavage fluid was determined. Approximately 50% of the left lung was weighed, then homogenized in 1 ml solution of 0.05% sodium azide in 0.1M PBS (pH 6.4), and then sonicated and centrifuged. The MPO levels in the supernatants of lungs were determined using a tissue MPO assay, and the results were calculated as absorbance/tissue weight (g). Samples of affected skin, lung, liver and kidney were collected for histopathology.

The subject of data set [3] is rats with second degree burns. The data set is classed as in vivo, Female Wistar rats. The settings on record: topical 400 μg/spot immediately after burn; 6 hours after burn. As to the method: The inhibitory effect of topically applied PMX53 on neutrophil infiltration following a burn was examined after a 6 hour period. In order to verify any effect of PMX53 on the immune system, immunoglobulin […] (IgG) levels were examined. IgM levels can be examined using similar methods. Female Wistar rats of body weight about 250 grams were used in this study. A total of nine rats were used in the experiments, divided into 3 groups of 3 animals each: Both sides of the anaesthetized rat body was shaved. […] Skin samples were collected for histopathology. The change in circulating IgG levels following the administration of PMX53 are illustrated in FIG. 7. IgG levels in plasma were measured using an ELISA assay. IgM levels may also may be determined using conventional ELISA techniques. There was no suppression of IgG over the 6 hr period after burns to 15% of the rat skin surface area (n=3). […] The 6 hr period may be too short for the systemic reaction to the burns to be detectable.

The nature of data set [4]: Interaction with silver coated Acticoat dressing: silver ion leaching and surface by scanning electron microscopy. The format is physicochemical. As to the method:
(§1) Uniformly sized segments of the Acticoat dressing (10 mm diameter) were incubated in 7 ml PMX53 solution (1.0 mM in sterile water) or sterile water alone at 37° C. for periods of up to 7 days. The segments were then removed and examined using scanning electron microscopy to determine if the silver coating was affected.
A quantitative assessment of the effect of PMX53 on silver ion leaching was performed by determining the concentration of silver ions in each solution after the incubation described above for 1, 3, 5 and 7 days. Silver ion determination was performed using a Spectroflame model P ICPAES instrument.

Data set [5] in a line: PMX53 concentration remaining after incubation with Acticoat dressing (HPLC). The data set is classed as physicochemical. The conditions noted are these: throughout the experiment (up to 7 days, 37° C.). The procedure: as §1
An analysis of the concentration of PMX53 remaining in the incubation solutions was performed by high performance liquid chromatography to ascertain if the concentration of PMX53 remained constant throughout the incubation period. PMX53 solution was incubated at 37° C. without a dressing to act as a control.

Data set [6] deals with T-cell dependent antigen responses. The conditions noted are these: rat, in vivo, po, 100 mg/kg/day.
For a further data set, the system named is granulocytes. The settings on record: cynomolgus monkey, in vivo, po, 100 mg/kg/day.
For data set [7] the following is noted: in vivo.

“Also recorded” adds a separate entry of the source.

Consider `CC(=O)N[C@@H](Cc1ccccc1)C(=O)N[C@H]1CCCNC(=O)[C@H](CCCNC(=N)N)NC(=O)[C@H](Cc2c[nH]c3ccccc23)NC(=O)[C@@H](CC2CCCCC2)NC(=O)[C@@H]2CCCN2C1=O` [PMX53, AcPhe[Orn-Pro-D-Cyclohexylalanine-Trp-Arg]], for which the “degree of EB infiltration in the subcutaneous tissues” value in data set [1] (10 mg/kg SC 30 minutes before burn, 4 hours after burning, drug-treated versus untreated burned rats) is recorded as “no appreciable difference”. Further, in data set [1] (10 mg/kg SC 30 minutes before burn, compared to burn-only group), the “leakage of Evans Blue (plasma) into burnt skin, blue staining and thickening” value is “less blue staining and less thickening; also recorded: markedly less plasma leakage into the skin”. Besides, the “macroscopic appearance of the lung (EB staining, consolidation)” value in data set [1] (10 mg/kg SC pretreatment, 4 hours after burn) is “colour and texture similar to those of the normal lungs; also recorded: appear normal”. For the same compound, in data set [2], the “total number of cells in bronchoalveolar lavage fluid” value is recorded as “cell numbers approaching those found in the sham-operated, unburned animals”. The “total number of cells in bronchoalveolar lavage fluid” value in data set [2] (listed as PMX35) is reported as “dramatically less”. For the same compound, in data set [3], the “neutrophil recruitment in burned skin (histology)” value is given as “less neutrophil recruitment” and the “structural damage of burned skin (histology)” value was “same structural damage as burned skin”. Moreover, the “changes at the surface of Acticoat dressing segments (scanning electron microscopy)” value in data set [4] (7 days incubation with PMX53, magnification of 2000) is recorded as “no apparent changes”. In addition, the “factor of increase in leaching of silver ions from Acticoat dressing” value in data set [4] (PMX53 1 mM, after 1 day of incubation at 37° C.) is listed as 2.5. The “concentration of PMX53 incubated with Acticoat dressing compared to control PMX53 solution” value in data set [5] is on record as “did not change”. For the same compound, the “T-cell dependent antigen responses” value in data set [6] is recorded as “did not attenuate or increase”. Further, in the data set with granulocytes, the “phagocytosis or oxidative burst functions of granulocytes” value was “did not detectably impair”. Also, the “penetration through normal rat skin” value in data set [7] was 0.16 %/cm^2. In addition, the “systemic level of the drug after topical administration compared with other routes” value in data set [7] (rat) is “lower systemic level”.
